What was measured:
EGFR^WT kinase = molecular target: T1, EGFR^WT kinase (Homo sapiens, UniProt P00533); assay: EGFR^WT kinase assay (ULight peptide / Eu-PT66 antibody detection); assay type: biochemical
T1 construct: purchased Carna Biosciences 08-115
Excerpt: (§1) Reagents and consumables: ULight™-labeled Ploy GT Peptide (Perkin Elmer, Cat. No. TRF-0100-M); ULight™-labeled JAK-1 (Try1023) Peptide (Perkin Elmer, Cat. No. TRF-0121-M); Eu-W1024-labeled Anti-Phosphotyrosine Antibody (PT66) (Perkin Elmer, Cat. No. AD0068); 10×Detection Buffer (Perkin Elmer, Cat. No. CR97-100); HER2 Kinase (Carna Biosciences, Cat. No. 08-016); EGFR kinase (Carna Biosciences, Cat. No. 08-115); HEPES (GIBCO, Cat. No. 15630-080); EGTA (Sigma, Cat. No. 03777-10G); EDTA (Sigma, Cat. No. EDS-100G); MgCl2 (Sigma, Cat. No. 63069-100ML); DTT (Sigma, Cat. No. 43816-10ML); Tween-20 (Sigma, Cat. No. P7949-100ML); DMSO (Life Science, Cat. No. 0231-500ML); 384-well plates (Perkin Elmer, Cat. No. 607290); multifunctional plate reader (Perkin Elmer, Cat. No. Envision)
(§2) Preparation of compound solution: The assay compound was dissolved in DMSO to form a 10 mM stock solution. Prior to use, the compound was diluted to 0.25 mM in DMSO (100 times the final concentration of the diluent) and then subjected to a 3-fold concentration gradient dilution to obtain a total of 11 concentrations. The solution was diluted with buffer to a diluent with 4× the final concentration when the drug was added.
(§3) EGFR^WT kinase assay: buffer was prepared, and 3.48 nM 4× EGFR kinase solution, 600 μM 4× ATP solution, and 400 nM 4×ULight™-labeled JAK-1 (Try1023) Peptide substrate solution was prepared using the buffer. After the preparation was completed, the enzyme was mixed with different concentrations of compounds pre-prepared by dilution, and the mixture was left to stand at room temperature for 5 min. Each concentration was performed in duplicate. The corresponding substrate and ATP were added and the mixture was reacted at room temperature for 120 minutes (with negative and positive controls). After completion of the reaction, PT66 detection antibody was added. The mixture was incubated at room temperature for 60 minutes, and then detected by Envision.
(§4) Data Calculation: the reading of well and inhibition rate were calculated using Excel, wherein reading of well=10000*(well EU665 value)/(well EU615 value), and inhibition rate=[(reading of positive control well−reading of assay well)/(reading of positive control well−reading of negative control well)]*100%. Compound concentrations and corresponding inhibition rates were input into GraphPad Prism for processing to calculate IC50 values.

HER2 kinase = molecular target: T2, HER2 kinase (Homo sapiens, UniProt P04626); assay: HER2 kinase assay (ULight peptide / Eu-PT66 antibody detection); assay type: biochemical
T2 construct: purchased Carna Biosciences 08-016
T2 sequence (P04626 23-1255): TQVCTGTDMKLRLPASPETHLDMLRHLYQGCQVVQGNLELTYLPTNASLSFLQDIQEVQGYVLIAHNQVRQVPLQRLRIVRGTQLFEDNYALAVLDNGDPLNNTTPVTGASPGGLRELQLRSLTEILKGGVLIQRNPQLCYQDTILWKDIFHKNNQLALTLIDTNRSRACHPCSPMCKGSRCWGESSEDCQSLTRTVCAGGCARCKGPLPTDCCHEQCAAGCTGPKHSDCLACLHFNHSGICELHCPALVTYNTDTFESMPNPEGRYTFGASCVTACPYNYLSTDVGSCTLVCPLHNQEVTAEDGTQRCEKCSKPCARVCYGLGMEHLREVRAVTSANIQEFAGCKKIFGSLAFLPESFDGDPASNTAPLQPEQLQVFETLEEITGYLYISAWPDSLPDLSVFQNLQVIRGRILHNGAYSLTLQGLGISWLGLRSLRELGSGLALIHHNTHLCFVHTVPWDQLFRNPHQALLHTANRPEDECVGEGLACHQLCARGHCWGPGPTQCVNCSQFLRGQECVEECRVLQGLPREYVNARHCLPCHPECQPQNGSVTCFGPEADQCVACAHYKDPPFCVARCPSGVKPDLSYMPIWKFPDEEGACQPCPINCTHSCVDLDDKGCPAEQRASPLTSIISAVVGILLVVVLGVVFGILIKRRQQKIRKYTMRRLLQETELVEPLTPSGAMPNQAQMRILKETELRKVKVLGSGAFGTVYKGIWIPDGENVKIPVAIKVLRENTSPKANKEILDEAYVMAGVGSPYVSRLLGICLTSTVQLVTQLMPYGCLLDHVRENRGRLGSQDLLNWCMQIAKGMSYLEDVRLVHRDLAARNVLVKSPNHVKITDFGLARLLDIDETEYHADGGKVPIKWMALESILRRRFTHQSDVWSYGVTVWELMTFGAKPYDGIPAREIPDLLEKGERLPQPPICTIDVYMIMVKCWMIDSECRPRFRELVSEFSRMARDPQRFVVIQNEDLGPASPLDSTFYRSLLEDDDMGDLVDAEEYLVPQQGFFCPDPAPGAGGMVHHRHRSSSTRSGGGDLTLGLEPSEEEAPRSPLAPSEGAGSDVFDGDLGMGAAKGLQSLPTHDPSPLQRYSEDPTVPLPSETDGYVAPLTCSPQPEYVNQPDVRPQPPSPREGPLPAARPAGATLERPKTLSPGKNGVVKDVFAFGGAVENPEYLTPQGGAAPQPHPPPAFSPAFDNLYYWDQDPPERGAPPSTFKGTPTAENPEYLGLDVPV
Excerpt: as §1, §2
as §3, with “HER2 kinase” for “EGFR^WT kinase”, “and 40” for “and 3.48”, “4× HER2” for “4× EGFR”, “solution, 40” for “solution, 600”, “4×ULight™-labeled Ploy GT” for “4×ULight™-labeled JAK-1 (Try1023)”, “solution were” for “solution was”
as §4

HCC-827 cells = assay: Inhibition of cell proliferation, CTG method, HCC-827; assay type: cell-based; conditions: Homo sapiens, HCC827, 72 hours
Excerpt: (§5) The present application examined the in vitro anti-proliferative activity of the compounds of the present disclosure against in vitro cultured HCC-827, Ba/F3-EGFR-VIII and Ba/F3 EGFR D770_N771insSVD cell lines by CTG method.
(§6) Reagents and consumables: RPMI1640 (ThermoFisher, Cat. No. C11875500BT); DMEM (ThermoFisher, C11995500BT); fetal bovine serum (Hyclone, Cat. No. SV30087.03); 0.25% trypsin-EDTA (ThermoFisher, Cat. No. 25200072); penicillin-streptomycin (Hyclone, Cat. No. SV30010); DMSO (Life Science, Cat. No. 0231-500ML); CTG assay kit (Promega, Cat. No. G9243); 96-well plate (Corning, Cat. No. 3599); multifunctional plate reader (Perkin Elmer, Cat. No. Envision)
(§7) Cell lines: HCC-827 (from ATCC), Ba/F3-EGFR-VIII and Ba/F3 EGFR D770_N771insSVD (all from KYinno Biotechnology (Beijing) Co., Ltd.); all of the above cells were cultured with RPMI1640 medium containing 10% fetal bovine serum, 100 U/mL penicillin, and 100 μg/mL streptomycin in the culture process, and HCC-827 was cultured with DMEM medium containing 10% fetal bovine serum, 100 U/mL penicillin, and 100 μg/mL streptomycin.
(§8) • 1. The assay compound was dissolved with DMSO to form a stock solution and a gradient dilution was performed, followed by dilution with the corresponding medium to obtain a solution with 5-fold working concentration. • 2. Cells in logarithmic growth phase were adjusted to specific cell densities by dilution with culture medium, and 80 μL of cell suspension was added to a 96-well plate, such that plating densities of cells of HCC-827, Ba/F3-EGFR-VIII and Ba/F3 EGFR D770_N771insSVD were all 3000 cells/well. The cells of Ba/F3-EGFR-VIII and Ba/F3 EGFR D770_N771insSVD were used directly in the next step (treatment with compound), whereas the HCC-827 needed to be cultured overnight in a 37° C., 5% carbon dioxide gas incubator to adhere to the wall, and then treated with compounds. • 3. 20 μL of compound solution was added to each well of the 96-well plate that had been inoculated with cells. The highest concentration of the assayed compound was 10 μM, 4-fold serial dilution, a total of 9 concentrations, and duplicate wells. A control group without compound was also set up. • 4. The cells were cultured for another 72 hours, and then cell viability was detected by CTG assay kit. Signal values were read with a multifunctional plate reader (Perkin Elmer). GraphPad Prism software was used to create a dose-response curve and IC50 was calculated.

[1] = molecular target: Ba/F3 EGFR D770_N771insSVD cells (Homo sapiens, UniProt P00533, DUP768-770, cells depend on it); assay: Inhibition of cell proliferation, CTG method, Ba/F3 EGFR D770_N771insSVD; assay type: cell-based; conditions: 72 hours, read-out: Ba/F3 EGFR D770_N771insSVD IC50
Chain of Ba/F3 EGFR D770_N771insSVD cells (P00533 with tags, fused parts or gaps DUP768-770): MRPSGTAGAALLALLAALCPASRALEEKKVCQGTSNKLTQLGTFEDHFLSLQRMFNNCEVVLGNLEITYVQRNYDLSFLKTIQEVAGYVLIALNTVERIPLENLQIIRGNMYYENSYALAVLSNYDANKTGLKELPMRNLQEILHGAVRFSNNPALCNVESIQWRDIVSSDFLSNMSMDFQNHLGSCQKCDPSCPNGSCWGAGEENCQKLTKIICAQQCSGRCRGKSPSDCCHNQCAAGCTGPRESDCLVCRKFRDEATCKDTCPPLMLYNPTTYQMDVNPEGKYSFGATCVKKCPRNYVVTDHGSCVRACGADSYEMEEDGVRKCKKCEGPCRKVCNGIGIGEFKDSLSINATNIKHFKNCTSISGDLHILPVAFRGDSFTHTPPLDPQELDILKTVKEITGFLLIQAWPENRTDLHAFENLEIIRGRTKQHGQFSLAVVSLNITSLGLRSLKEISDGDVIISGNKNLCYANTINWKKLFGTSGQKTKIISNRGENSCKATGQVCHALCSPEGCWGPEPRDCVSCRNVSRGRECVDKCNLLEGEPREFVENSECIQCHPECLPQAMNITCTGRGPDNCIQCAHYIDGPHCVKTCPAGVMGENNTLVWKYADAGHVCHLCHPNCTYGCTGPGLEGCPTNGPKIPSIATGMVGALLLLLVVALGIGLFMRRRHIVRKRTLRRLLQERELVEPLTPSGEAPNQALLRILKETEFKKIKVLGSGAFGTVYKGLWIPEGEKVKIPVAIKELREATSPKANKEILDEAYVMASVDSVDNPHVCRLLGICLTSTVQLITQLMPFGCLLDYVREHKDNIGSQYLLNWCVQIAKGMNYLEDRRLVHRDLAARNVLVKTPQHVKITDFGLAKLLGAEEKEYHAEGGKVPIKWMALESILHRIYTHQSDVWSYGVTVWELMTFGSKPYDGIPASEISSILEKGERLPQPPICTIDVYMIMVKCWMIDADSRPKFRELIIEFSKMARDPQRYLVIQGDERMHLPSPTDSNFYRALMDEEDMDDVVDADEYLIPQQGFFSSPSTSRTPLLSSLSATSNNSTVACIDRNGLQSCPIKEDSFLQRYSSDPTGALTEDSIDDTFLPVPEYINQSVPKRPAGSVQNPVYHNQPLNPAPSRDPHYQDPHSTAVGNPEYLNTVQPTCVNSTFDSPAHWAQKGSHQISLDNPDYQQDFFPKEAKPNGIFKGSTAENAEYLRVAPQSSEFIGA
Excerpt: as §5, §6, §7, §8

Ba/F3-EGFR-VIII cells = Ba/F3-EGFR-VIII cells (Homo sapiens, UniProt P00533, DELINS30-297G, cells depend on it); assay: Inhibition of cell proliferation, CTG method, Ba/F3-EGFR-VIII; assay type: cell-based; conditions: 72 hours, read-out: Ba/F3 EGFRvIII IC50
Chain of Ba/F3-EGFR-VIII cells (P00533 with tags, fused parts or gaps DELINS30-297G): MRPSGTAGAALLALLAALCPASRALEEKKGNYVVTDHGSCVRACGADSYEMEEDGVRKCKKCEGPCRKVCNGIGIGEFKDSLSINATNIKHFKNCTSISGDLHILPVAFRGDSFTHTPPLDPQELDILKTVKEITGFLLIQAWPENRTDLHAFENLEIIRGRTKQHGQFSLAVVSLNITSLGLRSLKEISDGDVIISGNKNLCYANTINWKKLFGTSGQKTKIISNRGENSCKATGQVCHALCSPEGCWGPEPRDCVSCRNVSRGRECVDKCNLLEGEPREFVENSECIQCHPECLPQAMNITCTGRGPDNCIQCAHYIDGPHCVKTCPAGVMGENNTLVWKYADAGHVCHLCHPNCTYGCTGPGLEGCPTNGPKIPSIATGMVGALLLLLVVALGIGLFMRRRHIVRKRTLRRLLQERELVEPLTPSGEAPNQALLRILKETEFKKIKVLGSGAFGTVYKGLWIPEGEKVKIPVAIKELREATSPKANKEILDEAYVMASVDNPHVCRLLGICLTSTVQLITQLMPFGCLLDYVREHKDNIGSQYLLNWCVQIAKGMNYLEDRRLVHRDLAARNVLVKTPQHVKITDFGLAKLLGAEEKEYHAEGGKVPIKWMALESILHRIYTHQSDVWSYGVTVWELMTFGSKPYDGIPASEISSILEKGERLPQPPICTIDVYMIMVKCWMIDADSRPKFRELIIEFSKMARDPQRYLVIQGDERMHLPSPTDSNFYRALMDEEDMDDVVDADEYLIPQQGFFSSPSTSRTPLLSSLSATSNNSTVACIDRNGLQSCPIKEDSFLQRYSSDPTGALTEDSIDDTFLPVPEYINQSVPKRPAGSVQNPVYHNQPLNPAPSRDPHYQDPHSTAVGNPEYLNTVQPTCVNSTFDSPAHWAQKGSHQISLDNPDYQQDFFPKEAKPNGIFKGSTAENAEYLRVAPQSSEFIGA
Excerpt: as §5, §6, §7, §8

T1 sequence (P00533 25-1210): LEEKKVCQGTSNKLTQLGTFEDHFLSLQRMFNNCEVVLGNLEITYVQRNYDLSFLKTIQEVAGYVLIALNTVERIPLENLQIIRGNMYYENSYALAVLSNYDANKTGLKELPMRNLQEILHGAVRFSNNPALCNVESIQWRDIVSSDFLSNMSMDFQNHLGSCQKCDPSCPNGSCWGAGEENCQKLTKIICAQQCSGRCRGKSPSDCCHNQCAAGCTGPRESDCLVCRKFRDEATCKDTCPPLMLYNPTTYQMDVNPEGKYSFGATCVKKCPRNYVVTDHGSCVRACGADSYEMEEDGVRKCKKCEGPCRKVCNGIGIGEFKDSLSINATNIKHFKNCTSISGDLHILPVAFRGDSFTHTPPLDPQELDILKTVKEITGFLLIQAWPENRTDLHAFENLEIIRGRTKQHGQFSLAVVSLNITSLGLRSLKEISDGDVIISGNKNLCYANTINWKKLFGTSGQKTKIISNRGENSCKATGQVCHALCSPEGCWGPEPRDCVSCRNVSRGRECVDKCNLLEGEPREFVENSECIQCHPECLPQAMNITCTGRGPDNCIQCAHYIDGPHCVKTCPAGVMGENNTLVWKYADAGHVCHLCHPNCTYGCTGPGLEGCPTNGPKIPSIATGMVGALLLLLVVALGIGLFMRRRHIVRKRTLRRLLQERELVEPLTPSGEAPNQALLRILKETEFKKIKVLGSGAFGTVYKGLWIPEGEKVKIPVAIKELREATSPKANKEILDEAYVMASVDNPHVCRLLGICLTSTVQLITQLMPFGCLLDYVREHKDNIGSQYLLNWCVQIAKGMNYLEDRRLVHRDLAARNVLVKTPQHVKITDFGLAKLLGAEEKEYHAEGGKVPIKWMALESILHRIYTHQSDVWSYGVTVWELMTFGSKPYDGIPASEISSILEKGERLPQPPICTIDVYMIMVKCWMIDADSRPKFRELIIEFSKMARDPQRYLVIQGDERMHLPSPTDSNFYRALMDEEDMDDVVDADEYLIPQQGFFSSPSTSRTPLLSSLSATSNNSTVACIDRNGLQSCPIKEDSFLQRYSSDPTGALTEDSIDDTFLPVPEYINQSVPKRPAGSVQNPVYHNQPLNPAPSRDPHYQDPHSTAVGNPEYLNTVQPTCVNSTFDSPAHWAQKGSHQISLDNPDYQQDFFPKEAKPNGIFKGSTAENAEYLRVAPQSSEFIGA

IC50 (EGFR^WT kinase) [nM] | IC50 (HER2 kinase) [nM] | IC50 (HCC-827 cells) [nM] | GI50 [1] [nM] | GI50 (Ba/F3-EGFR-VIII cells) [nM] | Compound
≤ 1 | 10 to 100 | ≤ 5 | 5 to 50 |  | CN(C)C/C=C/C(=O)Nc1ccc2ncnc(Nc3ccc(Cl)c(Cl)c3F)c2c1OCCO [Example 21, (E)-N-(4-((3,4-dichloro-2-fluorophenyl)amino)-5-(2-hydroxyethoxy)quinazolin-6-yl)-4-(dimethylamino)but-2-enamide]
≤ 1 | 10 to 100 | ≤ 5 | 50 to 500 | 5 to 50 | COc1c(NC(=O)/C=C/CN(C)C)ccc2ncnc(Nc3ccc(Cl)c(Cl)c3F)c12 [Example 19, (E)-N-(4-((3,4-dichloro-2-fluorophenyl)amino)-5-methoxyquinazolin-6-yl)-4-(dimethylamino)but-2-enamide]
≤ 1 | 10 to 100 | ≤ 5 | 50 to 500 |  | COCCOc1c(NC(=O)/C=C/CN(C)C)ccc2ncnc(Nc3ccc(Cl)c(Cl)c3F)c12 [Example 23, (E)-N-(4-((3,4-dichloro-2-fluorophenyl)amino)-5-(2-methoxyethoxy)quinazolin-6-yl)-4-(dimethylamino)but-2-enamide]
1 to 10 | 100 to 1000 | ≤ 5 | 50 to 500 | 5 to 50 | COc1c(NC(=O)/C=C/CN(C)C2CC2)ccc2ncnc(Nc3cccc(Cl)c3F)c12 [Example 2, (E)-N-(4-((3-chloro-2-fluorophenyl)amino)-5-methoxyquinazolin-6-yl)-4-(cyclopropyl(methyl)amino)but-2-enamide]
≤ 1 | 100 to 1000 | ≤ 5 |  | 5 to 50 | CN(C)C/C=C/C(=O)Nc1ccc2ncnc(Nc3cccc(Cl)c3F)c2c1OCCCS(C)(=O)=O [Example 7, (E)-N-(4-((3-chloro-2-fluorophenyl)amino)-5-(3-(methylsulfonyl)propoxy)quinazolin-6-yl)-4-(dimethylamino)but-2-enamide]
≤ 1 | 10 to 100 | 5 to 50 |  | 5 to 50 | CSCCOc1c(NC(=O)/C=C/CN(C)C)ccc2ncnc(Nc3cccc(Cl)c3F)c12 [Example 12, (E)-N-(4-((3-chloro-2-fluorophenyl)amino)-5-(2-(methylthio)ethoxy)quinazolin-6-yl)-4-(dimethylamino)but-2-enamide]
1 to 10 | 100 to 1000 | 5 to 50 | 50 to 500 | 50 to 500 | CC(C)Oc1c(NC(=O)/C=C/CN(C)C)ccc2ncnc(Nc3cccc(Cl)c3F)c12 [Example 10, (E)-N-(4-((3-chloro-2-fluorophenyl)amino)-5-isopropoxyquinazolin-6-yl)-4-(dimethylamino)but-2-enamide]
≤ 1 | 10 to 100 | ≤ 5 | 50 to 500 | 5 to 50 | COc1c(NC(=O)/C=C/CN(C)C(C)C)ccc2ncnc(Nc3cccc(Cl)c3F)c12 [Example 8, (E)-N-(4-((3-chloro-2-fluorophenyl)amino)-5-methoxyquinazolin-6-yl)-4-(isopropyl(methyl)amino)but-2-enamide]
≤ 1 | 100 to 1000 | ≤ 5 | 50 to 500 | 5 to 50 | CN(C)C/C=C/C(=O)Nc1ccc2ncnc(Nc3cccc(Cl)c3F)c2c1OCC(F)F [Example 17, (E)-N-(4-((3-chloro-2-fluorophenyl)amino)-5-(2,2-difluoroethoxy)quinazolin-6-yl)-4-(dimethylamino)but-2-enamide]
≤ 1 | 10 to 100 | ≤ 5 | 50 to 500 |  | COCCOc1c(NC(=O)/C=C/[C@H]2CCCN2C)ccc2ncnc(Nc3ccc(Cl)c(Cl)c3F)c12 [Example 24, (R,E)-N-(4-((3,4-dichloro-2-fluorophenyl)amino)-5-(2-methoxyethoxy)quinazolin-6-yl)-3-(1-methylpyrrolidin-2-yl)acrylamide]
≤ 1 | 10 to 100 | ≤ 5 | 5 to 50 | ≤ 5 | COc1c(NC(=O)/C=C/CNC(C)C)ccc2ncnc(Nc3cccc(Cl)c3F)c12 [Example 9, (E)-N-(4-((3-chloro-2-fluorophenyl)amino)-5-methoxyquinazolin-6-yl)-4-(isopropylamino)but-2-enamide]
≤ 1 | 1 to 10 | ≤ 5 | 5 to 50 |  | CN1CCC[C@@H]1/C=C/C(=O)Nc1ccc2ncnc(Nc3ccc(Cl)c(Cl)c3F)c2c1OCCO [Example 22, (R,E)-N-(4-((3,4-dichloro-2-fluorophenyl)amino)-5-(2-hydroxyethoxy)quinazolin-6-yl)-3-(1-methylpyrrolidin-2-yl)acrylamide]
≤ 1 | 1 to 10 | ≤ 5 | 50 to 500 |  | COc1c(NC(=O)/C=C/[C@H]2CCCN2C)ccc2ncnc(Nc3ccc(Cl)c(Cl)c3F)c12 [Example 20, (R,E)-N-(4-((3,4-dichloro-2-fluorophenyl)amino)-5-methoxyquinazolin-6-yl)-3-(1-methylpyrrolidin-2-yl)acrylamide]

Compound | IC50 (EGFR^WT kinase) [nM] | IC50 (HER2 kinase) [nM] | IC50 (HCC-827 cells) [nM] | GI50 [1] [nM] | GI50 (Ba/F3-EGFR-VIII cells) [nM]
CN(C)C/C=C/C(=O)Nc1ccc2ncnc(Nc3cccc(Cl)c3F)c2c1OCCC(C)(C)O [Example 14, (E)-N-(4-((3-chloro-2-fluorophenyl)amino)-5-(3-hydroxy-3-methylbutoxy)quinazolin-6-yl)-4-(dimethylamino)but-2-enamide] | 1 to 10 | 10 to 100 | ≤ 5 | 50 to 500 | 5 to 50
